Test results reported in patent publication US6774235B2, “Trisubstituted 1,3,5-triazine derivatives” (Janssen Pharmaceutica N.V., priority 1998, dated 2004).

Assays:
[1] = Cytotoxicity in mock-infected MT-4 cells (MTT); conditions: human, mock-infected MT-4 cells
Method: (§1) A rapid, sensitive and automated assay procedure was used for the in vitro evaluation of anti-HIV agents. An HIV-1 (wildtype IIIB) transformed T4-cell line, MT-4, which was previously shown (Koyanagi et al., Int. J Cancer, 36, 445-451, 1985) to be highly susceptible to and permissive for HIV infection, served as the target cell line. Inhibition of the HIV-induced cytopathic effect was used as the end point. […] The percent protection achieved by the compound in HIV-infected cells was calculated by the following formula: [formula]
(§2) whereby (ODT)HIV is the optical density measured with a given concentration of the test compound in HIV-infected cells; (ODC)HIV is the optical density measured for the control untreated HIV-infected cells; (ODC)MOCK is the optical density measured for the control untreated mock-infected cells; all optical density values were determined at 540 nm. […] The ratio of CC50 to IC50 was defined as the selectivity index (SI).

[2] = system: HIV-1 (wildtype IIIB); assay: microbe, parasite or virus in culture; type: cell-based; conditions: Human immunodeficiency virus 1, MT4; dose achieving 50% protection of HIV-1 (IIIB) infected MT-4 cells, MTT, OD 540 nm
Method: as §1, §2

IC50 [2] [nM]	Compound	CC50 [1] [µM]
2	Cc1cc(Br)cc(Cl)c1Oc1nc(N)nc(Nc2ccc(C#N)cc2)n1 [Compound 33, 4-[[4-amino-6-(4-bromo-2-chloro-6-methylphenoxy)-1,3,5-triazin-2-yl]amino]benzonitrile]	> 10
1	CC(=O)c1cc(C)c(Oc2nc(N)nc(Nc3ccc(C#N)cc3)n2)c(C)c1 [Compound 35, 4-[[4-(4-acetyl-2,6-dimethylphenoxy)-6-amino-1,3,5-triazin-2-yl]amino]benzonitrile]	32.1
5	N#Cc1ccc(Nc2nc(N)nc(Oc3c(Br)cc(Br)cc3Br)n2)cc1 [Compound 40, 4-[[4-amino-6-(2,4,6-tribromophenoxy)-1,3,5-triazin-2-yl]amino]benzonitrile]	> 10
2	Cc1cc([N+](=O)[O-])cc(C)c1Oc1nc(N)nc(Nc2ccc(C#N)cc2)n1 [Compound 41, 4-[[4-amino-6-(4-nitro-2,6-dimethylphenoxy)-1,3,5-triazin-2-yl]amino]benzonitrile]	12.2
4	N#Cc1ccc(Nc2nc(N)nc(Sc3ccc(Cl)cc3Cl)n2)cc1 [Compound 54, 4-[[4-amino-6-[(2,4-dichlorophenyl)thio]-1,3,5-triazin-2-yl]amino]benzonitrile]	57.3
3	Cc1cc(Br)cc(Cl)c1Nc1nc(N)nc(Nc2ccc(C#N)cc2)n1 [Compound 63, 4-[[4-amino-6-[(4-bromo-2-chloro-6-methylphenyl)amino]-1,3,5-triazin-2-yl]amino]-benzonitrile]	48
1	Cc1cc(C)c(Nc2nc(N)nc(Nc3ccc(C#N)cc3)n2)c(Cl)c1 [Compound 65, 4-[[4-amino-6-[(2-chloro-4,6-dimethylphenyl)amino]-1,3,5-triazin-2-yl]amino]-benzonitrile]	48.5
10	N#Cc1ccc(Nc2nc(N)nc(Nc3c(Cl)cc(Cl)cc3C(F)(F)F)n2)cc1 [Compound 71, 4-[[4-amino-6-[[2,4-dichloro-6-(trifluoromethyl)phenyl]amino]-1,3,5-triazin-2-yl]-amino]benzonitrile]	8.2
3	CC(C)c1cc(Br)c(Nc2nc(N)nc(Nc3ccc(C#N)cc3)n2)c(Br)c1 [Compound 77, 4-[[4-amino-6-[[2,6-dibromo-4-(1-methylethyl)phenyl]amino]-1,3,5-triazin-2-yl]-amino]benzonitrile]	47
473	N#Cc1ccc(Nc2nc(N)nc(Oc3cccc4[nH]ccc34)n2)cc1 [Compound 83]	59.6
1	CC(=O)c1cc(C)c2c(c1Oc1nc(N)nc(Nc3ccc(C#N)cc3)n1)CCC2 [Compound 84, 4-[[4-[(5-acetyl-2,3-dihydro-7-methyl-1H-inden-4-yl)oxy]-6-amino-1,3,5-triazin-2-yl]amino]benzonitrile]	54.1
